Measurements published in patent publication US10968269B1, “MHC multimers in borrelia diagnostics and disease” (Agilent Technologies, Inc., priority 2008, dated 2021).

Experiments:
[1] = tested on: Bcl-X(L)-specific, CD8 positive T cells; conditions: PBL from a breast cancer patient, 106 PBL/well in doublets, compared to the absence of added peptide, FIG. 11; cited from earlier work
[2] = tested on: T2 cells loaded with Bcl-X(L)173-182 peptide; conditions: different concentrations of peptide, E:T ratio 1:1, FIG. 14; cited from earlier work
[3] = biological target: HLA-A*0201-β2m-… peptide-complex (human); assay: sandwich ELISA: W6/32 coated, MHC complex added, HRP rabbit anti-β2m detection; reference: free β2m

YLNDHLEPWI (listed as Homo sapiens)
ELISPOT detection of BclX(L) specific T-cells (number of spots, IFN-gamma producing T-cells) [1]: clearly shows the presence of BclX(L) specific T-cells | effect of the peptide on killing of pulsed T2 target cells by clone 9 [2]: significant even at low concentrations

W6/32 mouse-anti-HLA-ABC antibody (Dako M0736)
OD450 ratio against the negative control β2m [3]: > 6 fold
